The record followed here is US20250332173A1, “COMPOUNDS AND METHODS FOR MODULATING NUCLEIC ACID SPLICING” (REMIX THERAPEUTICS INC., priority 2021, published 2025).

SMILES strings stand for the structures. Where two headings read alike, the source gives them in different places.

The test system of one assay is HTT mRNA. The assay can be described thus: RT-qPCR splicing assay, HTT canonical junction (CJ) and alternative junction (AJ) mRNA. The class given is cell-based, human. As to conditions: Homo sapiens; for AC50: increase in HTT alternative junction (AJ) mRNA, read-out: HTT AJ AC50. Put shortly:
(§1)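 24 h treatment, 37 °C/5% CO2; A673 or K562; 11-pt 3-fold series, top 10 uM final; DMSO ≤0.25%. Cell lysis with DNase I, then 1-step RT-qPCR. Housekeeping normalization: PPIA (A673), GAPDH or GUSB (K562).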

In assay [1] the test system is Target C. The assay can be described thus: HiBiT protein abundance assay, Target C HiBiT K562 cell line. Format: cell-based. Conditions: Homo sapiens; HiBiT lytic detection, modified K562 cells, 24 hours, top dose 10 μM; read-out: Effect on protein abundance, Target C (IC50). Here is the method: • Promega Nano-Glo HiBiT Lytic Detection System (cat #N3030) • Corning 384-well TC-treated microplates (cat #3570) • Synthego Engineered Cells Knock-In Clones
Cells were maintained in IMDM with 10% FBS. Before the assay, cells were diluted with […] growth media (IMDM+[…] media) and were seeded in a 384-well plate at a density of 10,000 cells/well (for each cell line listed in Table 5). Each compound was prepared as a 10-point 3-fold serial dilution in DMSO with the top dose at a final concentration of 10 μM in the well. Unmodified K562 cells were added at the previously specified density with DMSO to serve as an assay baseline and positive control (PC) and DMSO only with the respective modified cell lines was added to the negative control (NC) columns. Final DMSO concentration was kept at or below 0.25%. Treated cell plates were placed in an incubator at 37° C. with […] for 24 hours. After 24 hours, 25 μL of Complete HiBit Lytic reagent was added to each well at room temperature (e.g. one plate requiring 10 mL Lytic Buffer, 100 μL LgBiT Protein, 200 μL Lytic Substrate), shaken for 5 minutes at 600 RPM, then left to sit for 10 minutes for signal to stabilize before reading on a Spark Cyto plate reader (Tecan) with a 500 ms measurement time.
To determine compound effects on protein abundance of each target in Table 5, the percent response for each respective cell line was calculated at each compound concentration as follows:
For the normalized response at each concentration, a four-parameter logistical regression was fit to the data and the response was interpolated at the […] to determine a concentration for protein abundance at […] the untreated control.
(In general: With HiBiT, luminescence reflects the tagged protein that the partner subunit can reach.)

Another assay has as its system SMN2 mRNA. Kind of assay: RT-qPCR splicing assay, SMN2 canonical junction (CJ) mRNA. The class given is cell-based, human. Conditions: Homo sapiens; canonical junction qPCR panel, Table 5; read-out: SMN2 (decrease in CJ mRNA levels, IC50). Summed up:
(§2)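 Cells are plated (A673 allowed 24 h to adhere), dosed with an 11-point 3-fold series topping at 10 uM final, and incubated 24 h at 37 °C. Lysis is followed by cDNA synthesis and qPCR of the CJ transcript, normalized to a housekeeping gene.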
Background: Quantitative PCR measures a nucleic acid by following its amplification.

For another assay, the system named is HTT. Kind of assay: HiBiT protein abundance assay, HTT HiBiT K562 cell line. Conditions: HiBiT lytic detection, modified K562 cells, 24 hours, top dose 10 μM; read-out: Effect on protein abundance, HTT (IC50). Format: cell-based, human. Summed up:
(§3)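 K562 knock-in lines with endogenous HiBiT-tagged target, 10,000 cells/well in IMDM + FBS, treated 24 h at 37° C with 10-point 3-fold dilutions (top 10 μM final; DMSO ≤0.25%). Lytic Nano-Glo HiBiT luminescence normalized to untagged K562 baseline and DMSO controls; IC50 = concentration giving 50% abundance via four-parameter fit.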

The subject of a further assay is MYB. Kind of assay: HiBiT protein abundance assay, MYB HiBiT K562 cell line. Conditions: HiBiT lytic detection, modified K562 cells, 24 hours, top dose 10 μM; read-out: Effect on protein abundance, MYB (IC50). The class given is cell-based, human. Summed up:
as §3

The next assay concerns MYB mRNA. Kind of assay: RT-qPCR splicing assay, MYB canonical junction (CJ) and alternative junction (AJ) mRNA. Format: cell-based, human. Conditions: Homo sapiens. Summed up: as §1
Assay [2] relates to Target C. The assay can be described thus: RT-qPCR splicing assay panel, Target C canonical junction (CJ) mRNA. Format: cell-based, human. Conditions: Homo sapiens; canonical junction qPCR panel, Table 5; read-out: Target C (decrease in CJ mRNA levels, IC50). Summed up: as §2
Assay [3] concerns K562 (human chronic myelogenous leukemia) cells. The assay can be described thus: Cell Titer Glo 2.0 cell viability assay. Format: cell-based. Conditions: Homo sapiens, K562, 72 h, K562 cells, 72 hours, Cell Titer Glo 2.0; read-out: K562 GI50.
The mark [4] stands for this setting: decrease in HTT canonical junction (CJ) mRNA, RT-qPCR, read-out: HTT CJ IC50.
[5] abbreviates: canonical junction qPCR panel, Table 5, read-out: HTT (decrease in CJ mRNA levels, IC50).

On to `Cn1cc2cc(-n3cnc4ccc(N5CCNCC5)cc4c3=O)ccc2n1` [Compound 2155], for which the IC50 in the assay with HTT mRNA (setting [4]), in the assay on HTT mRNA (setting [5]), with Target C [1], in the assay on SMN2 mRNA, with HTT and with MYB was more than 10 µM throughout. Further, the IC50 (commonly the point on the concentration scale where inhibition reaches its midpoint) with MYB mRNA (canonical junction qPCR panel, Table 5, read-out: MYB (decrease in CJ mRNA levels, IC50)) was more than 10 µM; in the assay with MYB mRNA (decrease in MYB canonical junction (CJ) mRNA, RT-qPCR, read-out: MYB CJ IC50), more than 10 µM. For the same compound, the AC50 (as a rule, the concentration at which the activity in the assay is half-maximal) is more than 10 µM with HTT mRNA (RT-qPCR) and more than 10 µM in the assay on MYB mRNA (increase in MYB alternative junction (AJ) mRNA, RT-qPCR, read-out: MYB AJ AC50).
As for `Cc1cc(-c2nc3cc(N4CCN(C)CC4)ccc3c(=O)[nH]2)cc2cn(C)nc12` [Compound 2214], the IC50 in the assay with HTT mRNA (setting [4]), in the assay with HTT mRNA (setting [5]), with Target C [1], in the assay on SMN2 mRNA, in the assay on Target C [2] and with HTT was more than 10 µM each time. In addition, in the assay on MYB, the IC50 was more than 10 µM. Moreover, the AC50 in the assay on HTT mRNA (RT-qPCR) is more than 10 µM. Further, the GI50 (usually the concentration at which growth is held to half of that of the control) in assay [3] was 1 to 10 µM.
